{
  "source": "patent US10604555B2",
  "about": "“GIP derivatives and uses thereof” (priority 2018, dated 2020)",
  "key": {"human GIP receptor": {"biological_target": "T1, human GIP receptor (Homo sapiens, UniProt P48546)", "T1 construct": "expressed in transfected cells; host or cells: BHK (parent line BHKTS13), BHK CRE luc2P hGIPR clone #5", "T1 sequence (P48546 22-466)": "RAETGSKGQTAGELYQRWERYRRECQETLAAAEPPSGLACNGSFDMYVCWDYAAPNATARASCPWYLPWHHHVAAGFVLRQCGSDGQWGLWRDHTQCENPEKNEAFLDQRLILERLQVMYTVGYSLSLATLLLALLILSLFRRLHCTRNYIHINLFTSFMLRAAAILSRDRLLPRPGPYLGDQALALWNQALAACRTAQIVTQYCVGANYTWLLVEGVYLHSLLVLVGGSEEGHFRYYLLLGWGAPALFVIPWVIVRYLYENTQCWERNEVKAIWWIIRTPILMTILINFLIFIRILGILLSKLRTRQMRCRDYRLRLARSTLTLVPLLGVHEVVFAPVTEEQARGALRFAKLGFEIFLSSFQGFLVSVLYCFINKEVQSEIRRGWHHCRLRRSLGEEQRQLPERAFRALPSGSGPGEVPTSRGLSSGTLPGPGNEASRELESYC", "assay": "In vitro potency (CRE luciferase; whole cells), BHK CRE luc2P hGIPR", "assay_type": "cell-based", "details": "0.2% HSA", "procedure": "In Vitro Potency (CRE Luciferase; Whole Cells)\nThe in vitro potency is the measure of human GIP, GLP-1 or glucagon receptor activation, respectively, in a whole cell assay.\nIn vitro potency was determined by measuring the response of the human GIP, GLP-1 or glucagon receptor in a reporter gene assay in individual cell lines. […] When the respective receptor is activated it results in the production of cAMP, which in turn results in the luciferase protein being expressed. When assay incubation is completed the luciferase substrate (luciferin) is added and the enzyme converts luciferin to oxyluciferin to produce bioluminescence. The luminescence is measured as the readout for the assay.\nThe cells were derived from a clone containing the CRE luciferase element and were established by further transfection with the respective receptor to obtain the current clone.\nThe cells were cultured at 5% CO2 in Cell Culture Medium. They were aliquoted and stored in liquid nitrogen. The cells were kept in passage and were seeded out the day before each assay.\nThe Assay Buffer consisted of 1% ovalbumin and 0.1% Pluronic F-68 in Assay Medium with the addition of human serum albumin at twice the indicated concentrations.\n1) Cells were plated at 5000 cells/well and incubated overnight.\n2) Cells were washed three times in PBS.\n3) Assay Medium (50 μl aliquot) with or without serum albumin was added to each well in the assay plate.\n4) Stocks of the test compounds and reference compounds were diluted to a concentration of 0.2 μM in Assay Buffer. […] 8) The cells were washed three times with PBS plus some liquid in each well. 9) A 100 μl aliquot of steadylite plus reagent was added to each well of the assay plate (reagent was light sensitive). 10) Each assay plate was covered with aluminum foil to protect it from light and shaken for 30 min at room temperature. 11) Each assay plate was read in a microtiter plate reader. Calculations and Results\nThe data from the microtiter plate reader was transferred to GraphPad Prism software. The software performs a non-linear regression (log(agonist) vs response).\nA minimum of two replicates was measured for each sample. The reported values are averages of the replicates."}, "[1]": {"test_system": "diet-induced obese (DIO) mice", "assay": "Sub-chronic in vivo study in obese mice: food intake and body weight", "set-up": "species or system C57BL/6J mice", "details": "for effect on body weight (in words) / effect on food intake (in words) / Cumulative food intake (kcals) Day 14: DIO mice; for effect on body weight (in words) / effect on food intake (in words): Tables 6-8, compound 47 2 nmol/kg, GIP derivatives 30 nmol/kg; for Cumulative food intake (kcals) Day 14 / Absolute BW (grams) Day 14 / Change in BW (%) Day 14: once daily s.c.; for Cumulative food intake (kcals) Day 14 / Absolute BW (grams) Day 0 / Absolute BW (grams) Day 14 / Change in BW (%) Day 14: mean ± SEM; for Absolute BW (grams) Day 0: Day 0 (before treatment)", "description": "(§1) The purpose of this example is to assess the in vivo effect of the GIP derivatives of the present invention alone and in combination with a GLP-1 receptor agonist on food intake, body weight, and glucose tolerance in diet-induced obese (DIO) mice. The GLP-1 receptor agonist used for this example was a semaglutide-like molecule that has the same pharmacological properties as semaglutide, but a slightly different structure. The compound may be synthesised using methods known in the art, e.g. as described by methods of present Example 1 or as described in WO 2006/097537, example 4.\n(§2) The animals were treated once daily with the GLP-1 receptor agonist (compound no. 47) and/or a GIP derivative of the present invention exemplified by compound no.'s 5, 25 and 31, to assess weight loss, efficacy and glucose tolerance. Animals and Diet\n(§3) All animal protocols were approved by an Institutional Animal Care and Use Committee and Ethical Review Committee of Novo Nordisk. Animals were housed according to Novo Nordisk rodent housing standards, and were given ad libitum access to food and water under controlled lighting (12 h:12 h light/dark cycle; lights off 18:00-06:00), temperature (23±2° C.) and relative humidity (50±20%) conditions. DIO male C57BL/6J mice maintained on a high fat diet (45% kcal fat, RD12451, Research Diets, New Brunswick, N.J., USA) for 22 weeks were obtained from Charles River (France). Upon arrival, the mice were single-housed (one mouse per cage) and allowed to acclimate to their new environment for two weeks prior to the start of treatment.\n(§4) Prior to initiation of the study, animals were single-housed and acclimated to handling for 7 days. The DIO mice were distributed into groups (n=8/group) such that statistical variations in the mean and standard deviations of fat mass and body weight were minimized between groups. Animals were dosed once daily, subcutaneously with either vehicle or test compound.\n(§5) All compounds in the study were formulated in the following buffer: 50 mM phosphate; 70 mM sodium chloride; 0.05% polysorbate 80, pH 7.4. Dosing solutions were formulated in glass vials and stored at 2-8° C. Dosing solutions were brought to room temperature before dosing and returned to 2-8° C. after dosing.\nBody weight (BW) and food intake were measured immediately prior to dosing each day. The average starting body weight of the mice prior to start of treatment was 45.2±0.2 grams."}, "[2]": {"test_system": "diet-induced obese (DIO) mice", "assay": "Sub-chronic in vivo study in obese mice: IPGTT (intraperitoneal glucose tolerance test)", "set-up": "species or system C57BL/6J mice", "details": "for effect on glucose tolerance (in words): DIO mice, Tables 6-8, compound 47 2 nmol/kg, GIP derivatives 30 nmol/kg; for iAUC, IPGTT (mM*min) Day 15: i.p. glucose 2 g/kg, 4 h fasted, baseline subtracted AUC, mean ± SEM", "description": "as §1, §2, §3, §4, §5\nOn the day of the glucose tolerance test (day 15), animals were fasted for 4 h. Food was removed and animals were transferred to fresh cages. Animals had access to water but not to food. Tail blood glucose levels were measured and mice were injected (t=0) with an intra-peritoneal (i.p.) glucose load of 2 g/kg (200 mg/ml glucose solution, dose volume 10 ml/kg). Tail blood glucose levels were measured at times 0, 15, 30, 60, 90, 120 minutes following the i.p. glucose load. Stratification of the animals during the IPGTT was such that for example two mice from group 1 are dosed followed by two mice from group 2, 3, 4, before the next two mice from group 1, 2, 3 etc. were handled. This was to allow for equal distribution of “time of day” throughout all groups."}, "[3]": {"details": "Study 1, 47 2 nmol/kg and/or 5 30 nmol/kg"}, "[4]": {"details": "Study 2, compound no. 47 2 nmol/kg and/or compound no. 25 30 nmol/kg"}, "[5]": {"details": "Study 2, 47 2 nmol/kg and/or 25 30 nmol/kg"}, "[6]": {"details": "Study 3, 47 2 nmol/kg, 31 30 nmol/kg"}},
  "note": "Marks after values point to notes of the source that are not given here.",
  "data": [
    {"compound": "CCCC[C@H](NC(=O)[C@H](C)NC(=O)[C@@H](NC(=O)[C@H](CO)NC(=O)[C@H](Cc1ccc(O)cc1)NC(=O)[C@H](CC(=O)O)NC(=O)[C@H](CO)NC(=O)[C@@H](NC(=O)[C@H](Cc1ccccc1)NC(=O)[C@@H](NC(=O)CNC(=O)[C@H](CCC(=O)O)NC(=O)C(C)(C)NC(=O)[C@@H](N)Cc1ccc(O)cc1)[C@@H](C)O)[C@@H](C)CC)[C@@H](C)CC)C(=O)N[C@@H](CC(=O)O)C(=O)N[C@@H](CCCCN)C(=O)N[C@H](C(=O)N[C@@H](CCCNC(=N)N)C(=O)N[C@@H](CCC(N)=O)C(=O)N[C@@H](CCC(N)=O)C(=O)N[C@@H](CC(=O)O)C(=O)N[C@@H](Cc1ccccc1)C(=O)N[C@H](C(=O)N[C@@H](CCCCNC(=O)CC[C@H](NC(=O)CC[C@H](NC(=O)CC[C@H](NC(=O)CCCCCCCCCCCCCCCCC(=O)O)C(=O)O)C(=O)O)C(=O)O)C(=O)N[C@@H](Cc1c[nH]c2ccccc12)C(=O)N[C@@H](CC(C)C)C(=O)N[C@@H](CC(C)C)C(=O)N[C@@H](C)C(=O)N[C@@H](CCC(N)=O)C(=O)N[C@@H](CCCCN)C(=O)NCC(=O)N[C@@H](CCCCN)C(=O)N[C@@H](CCC(=O)O)C(=O)N[C@@H](CC(N)=O)C(=O)N[C@@H](CC(=O)O)C(=O)N[C@@H](Cc1c[nH]c2ccccc12)C(=O)N[C@@H](CCCCN)C(=O)N[C@@H](Cc1c[nH]cn1)C(=O)N[C@@H](CC(N)=O)C(=O)N[C@H](C(=O)N[C@H](C(=O)N[C@@H](CCC(N)=O)C(=O)O)[C@@H](C)O)[C@@H](C)CC)C(C)C)[C@@H](C)CC", "note": "[Compound 34, N{Epsilon-24}-[(4S)-4-carboxy-4-[[(4S)-4-carboxy-4-[[(4S)-4-carboxy-4-(17-carboxyheptadecanoylamino)butanoyl]amino]butanoyl]amino]butanoyl]-[Aib2,Nle14,Arg18,Lys24,Glu33]-hGIP]", "values": [
      {"measurement": "EC50", "setting": "human GIP receptor", "value": 0.0202, "unit": "nM"}
    ]},
    {"compound": "N^6,26-{18-[N-(17-carboxyheptadecanoyl)-D-γ-glutamyl]-10-oxo-3,6,12,15-tetraoxa-9,18-diazaoctadecanoyl}-[8-(2-amino-2-propanoic acid), 34-L-arginine]human glucagon-like peptide 1(7-37) [Compound 47]", "values": [
      {"measurement": "effect on body weight (in words)", "setting": "[1]", "value": "body weight loss"},
      {"measurement": "effect on food intake (in words)", "setting": "[1]", "value": "reduction in food intake"},
      {"measurement": "Cumulative food intake (kcals) Day 14", "setting": "[1]; Study 1, compound no. 47 2 nmol/kg and/or compound no. 5 30 nmol/kg", "value": "146.3 ± 6.8 ^b kcals"},
      {"measurement": "Absolute BW (grams) Day 0", "setting": "[1]; Study 1", "value": "44.4 ± 1.0 ^a grams"},
      {"measurement": "Absolute BW (grams) Day 14", "setting": "[1]; [3]", "value": "38.5 ± 1.2 ^bc grams"},
      {"measurement": "Change in BW (%) Day 14", "setting": "[1]; [3]", "value": "−13.2 ± 3.3 ^c %"},
      {"measurement": "Cumulative food intake (kcals) Day 14", "setting": "[1]; [4]", "value": "134.9 ± 4.3 ^b kcals"},
      {"measurement": "Absolute BW (grams) Day 0", "setting": "[1]; Study 2", "value": "40.2 ± 1.2 ^a grams"},
      {"measurement": "Absolute BW (grams) Day 14", "setting": "[1]; [5]", "value": "34.8 ± 1.2 ^b grams"},
      {"measurement": "Change in BW (%) Day 14", "setting": "[1]; [5]", "value": "−13.6 ± 0.7 ^c %"},
      {"measurement": "Cumulative food intake (kcals) Day 14", "setting": "[1]; Study 3, compound no. 47 2 nmol/kg and GIP compound no. 31 30 nmol/kg", "value": "140.2 ± 6.7 ^b kcals"},
      {"measurement": "Absolute BW (grams) Day 0", "setting": "[1]; Study 3", "value": "45.2 ± 1.4 ^a grams"},
      {"measurement": "Absolute BW (grams) Day 14", "setting": "[1]; [6]", "value": "40.0 ± 1.3 ^a grams"},
      {"measurement": "Change in BW (%) Day 14", "setting": "[1]; [6]", "value": "−11.2 ± 1.6 ^c %"},
      {"measurement": "effect on glucose tolerance (in words)", "setting": "[2]", "value": "improvement in glucose tolerance"},
      {"measurement": "iAUC, IPGTT (mM*min) Day 15", "setting": "[2]; [3]", "value": "543 ± 94 ^a mM*min"},
      {"measurement": "iAUC, IPGTT (mM*min) Day 15", "setting": "[2]; [5]", "value": "503 ± 55 ^b mM*min"},
      {"measurement": "iAUC, IPGTT (mM*min) Day 15", "setting": "[2]; [6]", "value": "1441 ± 135 ^c mM*min"}
    ]},
    {"compound": "N{1}-acetyl,N{Epsilon-24}-[(4S)-4-carboxy-4-[[(4S)-4-carboxy-4-[[(4S)-4-carboxy-4-[[4-[(19-carboxynonadecanoylamino)methyl]cyclohexanecarbonyl]amino]butanoyl]-amino]butanoyl]amino]butanoyl]-[D-Tyr1,Nle14,Arg18,Aib20,Lys24]-hGIP(1-31) [Compound 25]", "values": [
      {"measurement": "effect on body weight (in words)", "setting": "[1]", "value": "minor body weight loss"},
      {"measurement": "effect on food intake (in words)", "setting": "[1]", "value": "minor effect on food intake"},
      {"measurement": "Cumulative food intake (kcals) Day 14", "setting": "[1]; [4]", "value": "170.2 ± 7.3 ^b kcals"},
      {"measurement": "Absolute BW (grams) Day 0", "setting": "[1]; Study 2", "value": "41.1 ± 1.0 ^a grams"},
      {"measurement": "Absolute BW (grams) Day 14", "setting": "[1]; [5]", "value": "38.8 ± 1.0 ^a grams"},
      {"measurement": "Change in BW (%) Day 14", "setting": "[1]; [5]", "value": "−5.6 ± 0.8 ^b %"},
      {"measurement": "effect on glucose tolerance (in words)", "setting": "[2]", "value": "improved glucose tolerance"},
      {"measurement": "iAUC, IPGTT (mM*min) Day 15", "setting": "[2]; [5]", "value": "518 ± 36 ^b mM*min"}
    ]}
  ]
}
